Among the test systems are SF-268; NCI-H226; UACC-62; SR; OVCAR-3; CCRF-CEM; HCT-116; Hs-578T; SK-MEL-5; MOLT-4; U-251; MDA-N; TK-10; RXF 393; OVCAR-5; SN12C; LOX IMVI; EKVX; SF-539; NCI-H23.
What all share (experiment): inhibition of tumour cell growth, NCI panel, 48 h

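Step 1: Grow cells in 96-well plates. Step 2: Expose to compound for 48 hours at 5 concentrations. Step 3: Interpolate endpoints linearly; if unreached, use highest concentration. At the GI50, growth is halved.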 Active and inactive are the calls of the source. No stated cut-off is given here; in the data, active = GI50 up to about 1.1 µM and inactive = higher. Some results are limits rather than exact numbers.

Turning to `Cc1ccc(S(=O)(=O)ON2C(=O)c3c(N)c(C#N)c(-c4ccccc4)c(-c4ccccc4)c3C2=O)cc1`, the GI50 in the experiment on SF-268 is 34.3 µM (inactive); with NCI-H226 it was 15.9 µM (inactive); in the experiment with UACC-62, 17.1 µM (inactive); in the experiment with SR, 8.39 µM (inactive); in the experiment with OVCAR-3, 13.6 µM (inactive); in the experiment on CCRF-CEM, 3.16 µM (inactive). The GI50 was 14.6 µM (inactive) with HCT-116; 71.3 µM (inactive) with Hs-578T; 17.1 µM (inactive) in the experiment with SK-MEL-5; 10.2 µM (inactive) in the experiment on MOLT-4; 16.2 µM (inactive) in the experiment on U-251; 16.4 µM (inactive) with MDA-N. In addition, the GI50 was 17.3 µM (inactive) in the experiment with TK-10; 10.4 µM (inactive) in the experiment on RXF 393; 18 µM (inactive) in the experiment on OVCAR-5; 18.1 µM (inactive) in the experiment on SN12C; 15.8 µM (inactive) in the experiment on LOX IMVI; 14.6 µM (inactive) with EKVX. Also, the GI50 with SF-539 was 21.6 µM (inactive).
As to `CN(C)CCCn1c(Cc2ccc(Cl)cc2)nc2cc(C(F)(F)F)ccc21`, the GI50 with SF-268 was 14.1 µM (inactive); with NCI-H226, 18.7 µM (inactive); with UACC-62, 17.3 µM (inactive); in the experiment with SR, 15 µM (inactive); in the experiment on OVCAR-3, 14.5 µM (inactive); with CCRF-CEM, 13 µM (inactive). Besides, the GI50 in the experiment with HCT-116 was 12.5 µM (inactive); with Hs-578T it was 16.6 µM (inactive); in the experiment with SK-MEL-5, 15.8 µM (inactive); in the experiment with MOLT-4 it was 11.2 µM (inactive); in the experiment on U-251, 15.3 µM (inactive); in the experiment on MDA-N, 12 µM (inactive). The GI50 was 15.3 µM (inactive) in the experiment with TK-10; 15.8 µM (inactive) with NCI-H23; 9.06 µM (inactive) in the experiment with RXF 393; 17.7 µM (inactive) in the experiment on OVCAR-5; 15.1 µM (inactive) in the experiment with SN12C; 14.5 µM (inactive) with LOX IMVI. The results for the GI50 in the experiment on EKVX and in the experiment with SF-539 were 17.4 µM (inactive) and 16.3 µM (inactive), respectively.
As to `COc1ccc(/C=N/c2ccc(-c3nc4ccccc4s3)cc2)cc1OC`, the GI50 in the experiment on SF-268 is 28 µM (inactive); in the experiment on NCI-H226, 30.1 µM (inactive); with UACC-62, 20 µM (inactive); with SR, 27.8 µM (inactive); with OVCAR-3 it was 13.4 µM (inactive); in the experiment with CCRF-CEM it was 12.8 µM (inactive). Also, the GI50 was 29.1 µM (inactive) in the experiment on HCT-116; 24.5 µM (inactive) in the experiment on Hs-578T; 16.1 µM (inactive) in the experiment on SK-MEL-5; 17.9 µM (inactive) in the experiment on MOLT-4; 30.3 µM (inactive) with U-251; 30.9 µM (inactive) with MDA-N. In addition, the GI50 is 28.6 µM (inactive) with TK-10; 27.1 µM (inactive) in the experiment on NCI-H23; 20.3 µM (inactive) in the experiment on RXF 393; 36.5 µM (inactive) in the experiment on OVCAR-5; 25.7 µM (inactive) in the experiment on SN12C; 21.8 µM (inactive) in the experiment with LOX IMVI. Besides, the GI50 was 32.9 µM (inactive) in the experiment with EKVX and 34.8 µM (inactive) with SF-539.
On to `O=C1C(Cl)=C(Cl)C(=O)N1c1ccc(F)cc1` [FLUOROIMIDE], for which the GI50 in the experiment with SF-268 is 28.8 µM (inactive); with NCI-H226, 42.7 µM (inactive); in the experiment with UACC-62, 14.7 µM (inactive); with SR, 6.98 µM (inactive); in the experiment on OVCAR-3, 17.5 µM (inactive); in the experiment on CCRF-CEM, 2.75 µM (inactive). The GI50 in the experiment with HCT-116 was 26 µM (inactive); in the experiment on Hs-578T, 28.1 µM (inactive); with SK-MEL-5, 38.3 µM (inactive); in the experiment with MOLT-4, 6.22 µM (inactive); with U-251, 33.1 µM (inactive); in the experiment on MDA-N, 19.5 µM (inactive). For the same molecule, the GI50 in the experiment on TK-10 is 18.7 µM (inactive); in the experiment on NCI-H23, 17.5 µM (inactive); with RXF 393, 22.5 µM (inactive); with OVCAR-5 it was 20.9 µM (inactive); in the experiment on SN12C, 19.1 µM (inactive); in the experiment with LOX IMVI, 16.5 µM (inactive). For the same molecule, the values for the GI50 in the experiment on EKVX and in the experiment with SF-539 were 21.4 µM (inactive) and 23.5 µM (inactive), respectively.
Consider `Cc1nc(-c2ccccc2)cn2c1nc1ccccc12`, for which the GI50 with SF-268 is 28.5 µM (inactive); in the experiment on NCI-H226, 17.5 µM (inactive); with UACC-62 it was 14.7 µM (inactive); in the experiment with SR, 27.2 µM (inactive); with OVCAR-3, 26.7 µM (inactive); in the experiment on CCRF-CEM it was > 58.7 µM (inactive). Also, the GI50 in the experiment on HCT-116 was 25.9 µM (inactive); with Hs-578T, 35.4 µM (inactive); with SK-MEL-5 it was 13.9 µM (inactive); with MOLT-4 it was 44 µM (inactive); in the experiment with U-251, 18.6 µM (inactive); in the experiment on MDA-N, 21.8 µM (inactive). Further, the GI50 with TK-10 was 29.3 µM (inactive); in the experiment on NCI-H23, 25.9 µM (inactive); with RXF 393 it was 19.6 µM (inactive); in the experiment on OVCAR-5, > 31.6 µM (inactive); with SN12C it was 29.7 µM (inactive); with LOX IMVI it was 20.8 µM (inactive). The GI50 in the experiment on EKVX is 25.2 µM (inactive); in the experiment with SF-539, 23.1 µM (inactive).
For `C/C(=N\O)c1cccc[n+]1Cc1ccccc1`, the GI50 with SF-268, in the experiment on NCI-H226, in the experiment with UACC-62, with SR, with OVCAR-3 and in the experiment on CCRF-CEM was > 100 µM (inactive) in each case. In addition, the GI50 in the experiment with HCT-116, with Hs-578T, with SK-MEL-5, in the experiment with MOLT-4, in the experiment with U-251 and with MDA-N was > 100 µM (inactive) in each case. In addition, the GI50 in the experiment on TK-10, with NCI-H23, in the experiment with RXF 393, with OVCAR-5, in the experiment with SN12C and in the experiment with LOX IMVI was > 100 µM (inactive) in each case. The GI50 with EKVX and in the experiment with SF-539 was > 100 µM (inactive) each time.
For `COc1ccc2c(O)c(Oc3ccc(Cl)cc3)c(=O)oc2c1`, the GI50 in the experiment on SF-268 is > 100 µM (inactive); in the experiment with NCI-H226, > 100 µM (inactive); in the experiment on SR, > 100 µM (inactive); in the experiment on OVCAR-3, 83.9 µM (inactive); in the experiment with CCRF-CEM, > 100 µM (inactive); with HCT-116, > 100 µM (inactive). Moreover, the GI50 with Hs-578T is > 100 µM (inactive); in the experiment on SK-MEL-5, > 100 µM (inactive); in the experiment with MOLT-4, > 100 µM (inactive); in the experiment on U-251, 53.5 µM (inactive); with MDA-N, > 100 µM (inactive); in the experiment on TK-10 it was 78.3 µM (inactive). Also, the GI50 in the experiment with NCI-H23 is > 100 µM (inactive); with RXF 393 it was 35.3 µM (inactive); in the experiment with OVCAR-5, > 100 µM (inactive); in the experiment with SN12C, > 100 µM (inactive); in the experiment with LOX IMVI, > 100 µM (inactive); with EKVX, > 100 µM (inactive). The GI50 with SF-539 is > 100 µM (inactive).
For `COc1cc(/C=C2\C[C@H]3[C@@H]4CCC5=CC(=O)CC[C@]5(C)[C@H]4CC[C@]3(C)C2=O)cc(OC)c1OC`, the GI50 is 57.3 µM (inactive) in the experiment with SF-268; > 28.5 µM (inactive) in the experiment with NCI-H226; 4.35 µM (inactive) in the experiment with UACC-62; 3.04 µM (inactive) in the experiment on SR; 4.49 µM (inactive) in the experiment on OVCAR-3; 4.76 µM (inactive) in the experiment with CCRF-CEM. The GI50 with HCT-116 was 3.85 µM (inactive); with Hs-578T it was 17.8 µM (inactive); in the experiment with SK-MEL-5, 3.07 µM (inactive); in the experiment on MOLT-4, 2.13 µM (inactive); with U-251, 11.7 µM (inactive); with MDA-N, 4.43 µM (inactive). The GI50 in the experiment on TK-10 is 19.8 µM (inactive); in the experiment on NCI-H23, 6.4 µM (inactive); with RXF 393, 10.1 µM (inactive); in the experiment with OVCAR-5, 33.1 µM (inactive); in the experiment with SN12C, 6.4 µM (inactive); with LOX IMVI, 7.94 µM (inactive). The results for the GI50 in the experiment on EKVX and in the experiment on SF-539 were 15.6 µM (inactive) and 46.7 µM (inactive), respectively.
Turning to `COc1cc(C2SCC(=O)N2c2ccc(Cl)cc2)cc(OC)c1OC` (configuration not stated), the GI50 in the experiment on SF-268 is 97.5 µM (inactive); with NCI-H226, > 49.1 µM (inactive); with UACC-62, < 0.0205 µM (active); with SR, 1.12 µM (active); with OVCAR-3 it was 22.2 µM (inactive); with CCRF-CEM, 1.99 µM (inactive). Also, the GI50 was 8.11 µM (inactive) in the experiment with HCT-116; > 100 µM (inactive) with Hs-578T; 1.26 µM (inactive) in the experiment with SK-MEL-5; 1.69 µM (inactive) in the experiment on MOLT-4; > 79.4 µM (inactive) in the experiment on U-251; 3.05 µM (inactive) in the experiment with MDA-N. The GI50 in the experiment with TK-10 is > 100 µM (inactive); in the experiment with NCI-H23, 26.2 µM (inactive); with RXF 393, 19.1 µM (inactive); in the experiment on OVCAR-5 it was 0.252 µM (active); in the experiment with SN12C, > 39.5 µM (inactive); in the experiment with LOX IMVI, 1.03 µM (active). The GI50 was 3.15 µM (inactive) with EKVX and > 100 µM (inactive) in the experiment on SF-539.
For the molecule `CS(=O)(=O)Nc1ccc2c(c1)oc(=O)c1ccccc12`, the GI50 was 13.3 µM (inactive) with SF-268; > 100 µM (inactive) with NCI-H226; 65 µM (inactive) with UACC-62; > 100 µM (inactive) in the experiment with SR; > 100 µM (inactive) in the experiment on OVCAR-3; > 100 µM (inactive) in the experiment with CCRF-CEM. The GI50 in the experiment on HCT-116, in the experiment on Hs-578T, in the experiment on SK-MEL-5, in the experiment with MOLT-4, in the experiment with U-251 and with MDA-N was > 100 µM (inactive) throughout. The GI50 in the experiment on NCI-H23 was > 100 µM (inactive); in the experiment with RXF 393, > 100 µM (inactive); in the experiment on OVCAR-5 it was > 100 µM (inactive); with SN12C, > 100 µM (inactive); in the experiment on LOX IMVI, > 100 µM (inactive); in the experiment on EKVX it was 45.4 µM (inactive). For the same molecule, the GI50 in the experiment with SF-539 was > 100 µM (inactive).

The record behind these values is ChEMBL document CHEMBL1201862, “PubChem BioAssay data set” (2004).
